# How the values were obtained:
# persian speedwell [1] = assay: Test Example 4: herbicidal effect by soil treatment (Table 19, symbol R); assay type: in vivo, Persian speedwell (Veronica persica); settings: 320 g/ha
# Procedure, shortened: (§1)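 Pre-emergence style soil spray: seeds under ~1.5 cm sterilized diluvial soil received a uniform coat of emulsion diluted to the predetermined herbicide amount. Greenhouse 25–30° C; readout at week three on previously defined criteria.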
# chickweed = assay: Test Example 4: herbicidal effect by soil treatment (Table 19, symbol P); assay type: in vivo, common chickweed (Stellaria media); settings: 320 g/ha
# Procedure, shortened: as §1
# wheat [2] = assay: Test Example 5: effect on crop by foliage application, plastic box (Table 20, symbol e); assay type: in vivo; settings: 320 g/ha, 3 weeks after application
# Text: (§2) [Test Example 5] Herbicidal Effect Test by Foliage Application
# (§3) Sterilized diluvial soil was placed in a plastic box having a length of 21 cm, a width of 13 cm, and a depth of 7 cm. The seeds of each of southern crabgrass, green foxtail, barnyard grass, wild oat, blackgrass, Italian ryegrass, windgrass, velvetleaf, redroot pigweed, lambsquarters, chickweed, false cleavers, persian speedwell, corn, soybean, rice, wheat, beet, and rapeseed were sowed in a spot-like manner and covered with the soil having a thickness of about 1.5 cm. Thereafter, the plants were grown in a greenhouse at 25° C. to 30° C. After 14-day growth of the plants, the emulsion agent of the compound of the present invention prepared according to Formulation Example 2 was diluted with water so as to achieve a predetermined herbicide amount, and the diluted emulsion agent was uniformly applied to a foliage part with a small-sized spray. Three weeks after the herbicide application, the effect of the herbicide on each plant was evaluated according to the criteria of Test Example 1.
# rapeseed [3] = assay: Test Example 5: effect on crop by foliage application, plastic box (Table 20, symbol g); assay type: in vivo; settings: 320 g/ha, 3 weeks after application
# Text: as §2, §3
# beet [4] = assay: Test Example 5: effect on crop by foliage application, plastic box (Table 20, symbol f); assay type: in vivo; settings: 320 g/ha, 3 weeks after application
# Text: as §2, §3
# lambsquarters [5] = assay: Test Example 5: herbicidal effect by foliage application, plastic box (Table 20, symbol O); assay type: in vivo, lambsquarters (Chenopodium album); settings: foliage application, 320 g/ha, 3 weeks after application
# Procedure, shortened: (§4)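 Plants were sown into sterilized diluvial soil under about 1.5 cm cover and kept in a greenhouse at 25° C. to 30° C. Fourteen days on, foliage received an even spray of the diluted emulsion. Herbicidal or crop effect was judged three weeks afterwards.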
# green foxtail [6] = assay: Test Example 4: herbicidal effect by soil treatment (Table 19, symbol G); assay type: in vivo, green foxtail (Setaria viridis); settings: 320 g/ha
# Procedure, shortened: as §1
# wild oat [7] = assay: Test Example 5: herbicidal effect by foliage application, plastic box (Table 20, symbol I); assay type: in vivo, wild oat (Avena fatua); settings: foliage application, 320 g/ha, 3 weeks after application
# Procedure, shortened: as §4
# rice flat sedge = assay: Test Example 3: herbicidal effect by foliage application, Wagner pot (Table 18, symbol E); assay type: in vivo, rice flat sedge (Cyperus iria); settings: 320 g/ha
# Procedure, shortened: (§5)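 Plants were sown in alluvial soil held under 0.1–0.5 cm standing water and grown 14 days in a greenhouse at 25–30 °C. An emulsifiable formulation, water-diluted to the set dose, was then sprayed onto the foliage, and effects were scored three weeks later using previously defined criteria.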
# barnyard grass [8] = assay: Test Example 5: herbicidal effect by foliage application, plastic box (Table 20, symbol H); assay type: in vivo, barnyard grass (Echinochloa crus-galli); settings: foliage application, 320 g/ha, 3 weeks after application
# Procedure, shortened: as §4
# barnyard grass [9] = assay: Test Example 4: herbicidal effect by soil treatment (Table 19, symbol H); assay type: in vivo, barnyard grass (Echinochloa crus-galli); settings: 320 g/ha
# Procedure, shortened: as §1
# persian speedwell [10] = assay: Test Example 5: herbicidal effect by foliage application, plastic box (Table 20, symbol R); assay type: in vivo, Persian speedwell (Veronica persica); settings: foliage application, 320 g/ha, 3 weeks after application
# Procedure, shortened: as §4
# velvetleaf [11] = assay: Test Example 4: herbicidal effect by soil treatment (Table 19, symbol M); assay type: in vivo, velvetleaf (Abutilon theophrasti); settings: 320 g/ha
# Procedure, shortened: as §1
# rapeseed [12] = assay: Test Example 4: effect on crop by soil treatment (Table 19, symbol g); assay type: in vivo; settings: 320 g/ha
# Procedure, shortened: as §1
# wheat [13] = assay: Test Example 4: effect on crop by soil treatment (Table 19, symbol e); assay type: in vivo; settings: 320 g/ha
# Text: (§6) [Test Example 4] Herbicidal Effect Test by Soil Treatment
# as §3, with “Subsequently,” for “Thereafter, the plants were grown in a greenhouse at 25° C. to 30° C. After 14-day growth of the plants,”, “the surface of the soil” for “a foliage part”, “spray. The plastic box was placed in a greenhouse at 25° C. to 30° C. for growth of the plants.” for “spray.”
# Chinese sprangletop = assay: Test Example 3: herbicidal effect by foliage application, Wagner pot (Table 18, symbol D); assay type: in vivo, chinese sprangletop (Leptochloa chinensis); settings: 320 g/ha
# Procedure, shortened: as §5
# Italian ryegrass [14] = assay: Test Example 5: herbicidal effect by foliage application, plastic box (Table 20, symbol K); assay type: in vivo, Italian ryegrass (Lolium multiflorum); settings: foliage application, 320 g/ha, 3 weeks after application
# Procedure, shortened: as §4
# soybean [15] = assay: Test Example 4: effect on crop by soil treatment (Table 19, symbol d); assay type: in vivo; settings: 320 g/ha
# Text: as §6
# as §3, with “Subsequently,” for “Thereafter, the plants were grown in a greenhouse at 25° C. to 30° C. After 14-day growth of the plants,”, “the surface of the soil” for “a foliage part”, “spray. The plastic box was placed in a greenhouse at 25° C. to 30° C. for growth of the plants.” for “spray.”
# lambsquarters [16] = assay: Test Example 4: herbicidal effect by soil treatment (Table 19, symbol O); assay type: in vivo, lambsquarters (Chenopodium album); settings: 320 g/ha
# Procedure, shortened: as §1
# blackgrass [17] = assay: Test Example 5: herbicidal effect by foliage application, plastic box (Table 20, symbol J); assay type: in vivo, blackgrass (Alopecurus myosuroides); settings: foliage application, 320 g/ha, 3 weeks after application
# Procedure, shortened: as §4
# corn [18] = assay: Test Example 4: effect on crop by soil treatment (Table 19, symbol c); assay type: in vivo; settings: 320 g/ha
# Procedure, shortened: as §1
# southern crabgrass [19] = assay: Test Example 5: herbicidal effect by foliage application, plastic box (Table 20, symbol F); assay type: in vivo, southern crabgrass (Digitaria ciliaris); settings: foliage application, 320 g/ha, 3 weeks after application
# Procedure, shortened: as §4
# directly sowed rice = assay: Test Example 3: effect on crop by foliage application, Wagner pot (Table 18, symbol b); assay type: in vivo; settings: 320 g/ha
# Procedure, shortened: as §5
# windgrass [20] = assay: Test Example 5: herbicidal effect by foliage application, plastic box (Table 20, symbol L); assay type: in vivo, windgrass (Apera spica-venti); settings: foliage application, 320 g/ha, 3 weeks after application
# Procedure, shortened: as §4
# corn [21] = assay: Test Example 5: effect on crop by foliage application, plastic box (Table 20, symbol c); assay type: in vivo; settings: 320 g/ha, 3 weeks after application
# Text: as §2, §3
# southern crabgrass [22] = assay: Test Example 4: herbicidal effect by soil treatment (Table 19, symbol F); assay type: in vivo, southern crabgrass (Digitaria ciliaris); settings: 320 g/ha
# Procedure, shortened: as §1
# green foxtail [23] = assay: Test Example 5: herbicidal effect by foliage application, plastic box (Table 20, symbol G); assay type: in vivo, green foxtail (Setaria viridis); settings: foliage application, 320 g/ha, 3 weeks after application
# Procedure, shortened: as §4
# barnyard grass [24] = assay: Test Example 3: herbicidal effect by foliage application, Wagner pot (Table 18, symbol H); assay type: in vivo, barnyard grass (Echinochloa crus-galli); settings: 320 g/ha
# Procedure, shortened: as §5
# redroot pigweed = assay: Test Example 4: herbicidal effect by soil treatment (Table 19, symbol N); assay type: in vivo, redroot pigweed (Amaranthus retroflexus); settings: 320 g/ha
# Procedure, shortened: as §1
# Italian ryegrass [25] = assay: Test Example 4: herbicidal effect by soil treatment (Table 19, symbol K); assay type: in vivo, Italian ryegrass (Lolium multiflorum); settings: 320 g/ha
# Procedure, shortened: as §1
# wild oat [26] = assay: Test Example 4: herbicidal effect by soil treatment (Table 19, symbol I); assay type: in vivo, wild oat (Avena fatua); settings: 320 g/ha
# Procedure, shortened: as §1
# windgrass [27] = assay: Test Example 4: herbicidal effect by soil treatment (Table 19, symbol L); assay type: in vivo, windgrass (Apera spica-venti); settings: 320 g/ha
# Procedure, shortened: as §1
# velvetleaf [28] = assay: Test Example 5: herbicidal effect by foliage application, plastic box (Table 20, symbol M); assay type: in vivo, velvetleaf (Abutilon theophrasti); settings: foliage application, 320 g/ha, 3 weeks after application
# Procedure, shortened: as §4
# blackgrass [29] = assay: Test Example 4: herbicidal effect by soil treatment (Table 19, symbol J); assay type: in vivo, blackgrass (Alopecurus myosuroides); settings: 320 g/ha
# Procedure, shortened: as §1
# soybean [30] = assay: Test Example 5: effect on crop by foliage application, plastic box (Table 20, symbol d); assay type: in vivo; settings: 320 g/ha, 3 weeks after application
# Text: as §2, §3
# beet [31] = assay: Test Example 4: effect on crop by soil treatment (Table 19, symbol f); assay type: in vivo; settings: 320 g/ha
# Text: as §6
# as §3, with “Subsequently,” for “Thereafter, the plants were grown in a greenhouse at 25° C. to 30° C. After 14-day growth of the plants,”, “the surface of the soil” for “a foliage part”, “spray. The plastic box was placed in a greenhouse at 25° C. to 30° C. for growth of the plants.” for “spray.”
compound,measurement,setting,value
"Cc1nn(C)c(=O)c(-c2c(-c3ccc(OC(F)F)cc3)sc3ccc(F)cc23)c1O [Compound No. 2-042, 4-(2-(4-(difluoromethoxy)phenyl)-5-fluorobenzo[b]thiophen-3-yl)-5-hydroxy-2,6-dimethylpyridazin-3(2H)-one]","herbicidal effect rating, R: persian speedwell",persian speedwell [1],5 (Herbicidal rate of 90% or more (almost completely withered))
same,"herbicidal effect rating, P: chickweed",chickweed,4 (Herbicidal rate of 70% or more and less than 90%)
same,effect on wheat (e),wheat [2],1 (Herbicidal rate of 5% or more and less than 20%)
same,effect on rapeseed (g),rapeseed [3],5 (Herbicidal rate of 90% or more (almost completely withered))
same,effect on beet (f),beet [4],5 (Herbicidal rate of 90% or more (almost completely withered))
same,effect on lambsquarters (O),lambsquarters [5],5 (Herbicidal rate of 90% or more (almost completely withered))
same,"herbicidal effect rating, G: green foxtail",green foxtail [6],5 (Herbicidal rate of 90% or more (almost completely withered))
same,effect on wild oat (I),wild oat [7],3 (Herbicidal rate of 40% or more and less than 70%)
same,"herbicidal effect on E (rice flat sedge), rating 0-5",rice flat sedge,5 (Herbicidal rate of 90% or more (almost completely withered))
same,effect on barnyard grass (H),barnyard grass [8],5 (Herbicidal rate of 90% or more (almost completely withered))
same,"herbicidal effect rating, H: barnyard grass",barnyard grass [9],4 (Herbicidal rate of 70% or more and less than 90%)
same,effect on persian speedwell (R),persian speedwell [10],5 (Herbicidal rate of 90% or more (almost completely withered))
same,"herbicidal effect rating, M: velvetleaf",velvetleaf [11],5 (Herbicidal rate of 90% or more (almost completely withered))
same,"effect rating on crop, g: rapeseed",rapeseed [12],5 (Herbicidal rate of 90% or more (almost completely withered))
same,"effect rating on crop, e: wheat",wheat [13],0 (Herbicidal rate of 5% or less (almost no effect))
same,"herbicidal effect on D (Chinese sprangletop), rating 0-5",Chinese sprangletop,3 (Herbicidal rate of 40% or more and less than 70%)
same,effect on Italian ryegrass (K),Italian ryegrass [14],5 (Herbicidal rate of 90% or more (almost completely withered))
same,"effect rating on crop, d: soybean",soybean [15],0 (Herbicidal rate of 5% or less (almost no effect))
same,"herbicidal effect rating, O: lambsquarters",lambsquarters [16],5 (Herbicidal rate of 90% or more (almost completely withered))
same,effect on blackgrass (J),blackgrass [17],5 (Herbicidal rate of 90% or more (almost completely withered))
same,"effect rating on crop, c: corn",corn [18],0 (Herbicidal rate of 5% or less (almost no effect))
same,effect on southern crabgrass (F),southern crabgrass [19],4 (Herbicidal rate of 70% or more and less than 90%)
same,"effect on crop b (directly sowed rice), rating 0-5",directly sowed rice,1 (Herbicidal rate of 5% or more and less than 20%)
same,effect on windgrass (L),windgrass [20],5 (Herbicidal rate of 90% or more (almost completely withered))
same,effect on corn (c),corn [21],0 (Herbicidal rate of 5% or less (almost no effect))
same,"herbicidal effect rating, F: southern crabgrass",southern crabgrass [22],3 (Herbicidal rate of 40% or more and less than 70%)
same,effect on green foxtail (G),green foxtail [23],5 (Herbicidal rate of 90% or more (almost completely withered))
same,"herbicidal effect on H (barnyard grass), rating 0-5",barnyard grass [24],5 (Herbicidal rate of 90% or more (almost completely withered))
same,"herbicidal effect rating, N: redroot pigweed",redroot pigweed,5 (Herbicidal rate of 90% or more (almost completely withered))
same,"herbicidal effect rating, K: Italian ryegrass",Italian ryegrass [25],5 (Herbicidal rate of 90% or more (almost completely withered))
same,"herbicidal effect rating, I: wild oat",wild oat [26],0 (Herbicidal rate of 5% or less (almost no effect))
same,"herbicidal effect rating, L: windgrass",windgrass [27],3 (Herbicidal rate of 40% or more and less than 70%)
same,effect on velvetleaf (M),velvetleaf [28],5 (Herbicidal rate of 90% or more (almost completely withered))
same,"herbicidal effect rating, J: blackgrass",blackgrass [29],3 (Herbicidal rate of 40% or more and less than 70%)
same,effect on soybean (d),soybean [30],3 (Herbicidal rate of 40% or more and less than 70%)
same,melting point,,164 to 165 °C
same,"effect rating on crop, f: beet",beet [31],1 (Herbicidal rate of 5% or more and less than 20%)
